Data reported in patent US20110152243A1, “NOVEL THIENOPYRROLE COMPOUNDS” (ABBOTT LABORATORIES, priority 2009, published 2011).

Molecular target: PKCθ (Homo sapiens, UniProt Q04759)
Assay: PKCθ enzyme data at 1 mM ATP
Format: biochemical

Sequence of PKCθ (Q04759 whole entry): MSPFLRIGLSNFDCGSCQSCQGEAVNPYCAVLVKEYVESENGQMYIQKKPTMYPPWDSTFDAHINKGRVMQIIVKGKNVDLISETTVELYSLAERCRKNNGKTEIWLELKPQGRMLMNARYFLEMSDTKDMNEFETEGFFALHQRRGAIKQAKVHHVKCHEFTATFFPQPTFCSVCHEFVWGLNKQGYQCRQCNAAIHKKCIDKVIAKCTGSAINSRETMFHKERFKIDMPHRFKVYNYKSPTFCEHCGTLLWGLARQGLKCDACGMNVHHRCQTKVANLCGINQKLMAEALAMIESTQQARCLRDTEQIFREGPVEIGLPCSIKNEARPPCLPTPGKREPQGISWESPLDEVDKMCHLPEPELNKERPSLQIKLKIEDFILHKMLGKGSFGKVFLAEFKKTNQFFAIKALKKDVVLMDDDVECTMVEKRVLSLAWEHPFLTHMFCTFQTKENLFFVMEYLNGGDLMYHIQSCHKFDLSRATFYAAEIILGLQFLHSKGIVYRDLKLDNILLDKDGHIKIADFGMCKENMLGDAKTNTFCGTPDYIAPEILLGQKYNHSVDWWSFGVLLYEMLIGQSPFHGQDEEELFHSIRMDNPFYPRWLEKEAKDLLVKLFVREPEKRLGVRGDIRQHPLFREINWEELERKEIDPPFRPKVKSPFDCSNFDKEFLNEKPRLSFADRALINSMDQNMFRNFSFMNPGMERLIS

| Compound | IC50 |
| --- | --- |
| O=C1NC(=O)C(c2c[nH]c3ccsc23)=C1c1nc(N2CCn3ccnc3C2)nc2ccccc12 [E.2.7] | < 100 nM |
| O=C1NC(=O)C(c2c[nH]c3ccsc23)=C1c1nc(N2CCN3CCC[C@@H]3C2)nc2ccccc12 [E.2.1, (R)-3-(2-(Hexahydropyrrolo[1,2-a]pyrazin-2(1H)-yl)quinazolin-4-yl)-4-(4H-thieno[3,2-b]pyrrol-6-yl)-1H-pyrrole-2,5-dione] | < 100 nM |
| O=C1NC(=O)C(c2c[nH]c3sccc23)=C1c1nc(N2CC[C@@H](N3CCCC3)[C@H](F)C2)nc2ccccc12 [E.1.32] | < 100 nM |
| O=C1NC(=O)C(c2nn(CC3CCNCC3)c3ccccc23)=C1c1c[nH]c2sccc12 [G.1.12] | < 100 nM |
| CC(C1CCN(C)CC1)n1nc(C2=C(c3c[nH]c4sccc34)C(=O)NC2=O)c2ccccc21 (centres unmarked) [F.4.35] | 500 to 1000 nM |
| CC(C1CCN(c2nc(C3=C(c4c[nH]c5sccc45)C(=O)NC3=O)c3ccccc3n2)CC1)N1CCOCC1 (centres unmarked) [E.1.2] | 100 to 500 nM |
| NC1(C(=O)NC2CC2)CCN(c2nc(C3=C(c4c[nH]c5sccc45)C(=O)NC3=O)c3ccccc3n2)CC1 [E.1.58] | < 100 nM |
| O=C1NC(=O)C(c2nn(CC3CCN(CCF)CC3)c3ccccc23)=C1c1c[nH]c2sccc12 [F.4.20] | 100 to 500 nM |
| O=C1NC(=O)C(c2c[nH]c3sccc23)=C1c1nc(N2CCNCC2)nc2ccccc12 [G.1.5] | < 100 nM |
| CN1CCN(c2nc(C3=C(c4c[nH]c5sccc45)C(=O)NC3=O)c3cc(F)ccc3n2)CC1 [F.4.15] | < 100 nM |
| CC(C)(C)N1CCN(c2nc(C3=C(c4c[nH]c5sccc45)C(=O)NC3=O)c3ccccc3n2)CC1 [E.1.22] | < 100 nM |
| CN(C)[C@H]1CC[C@@H](Cn2nc(C3=C(c4c[nH]c5sccc45)C(=O)NC3=O)c3ccccc32)CC1 [F.4.18] | 100 to 500 nM |
| O=C1NC(=O)C(c2c[nH]c3sccc23)=C1c1nc(N2CCc3nc[nH]c3C2)nc2ccccc12 [E.1.27] | < 100 nM |
| COc1ccc2nc(N3CCN(C)CC3)nc(C3=C(c4c[nH]c5sccc45)C(=O)NC3=O)c2c1 [F.4.14] | < 100 nM |
| CCN1CCC(Cn2nc(C3=C(c4c[nH]c5sccc45)C(=O)NC3=O)c3ccccc32)CC1 [F.4.19] | 100 to 500 nM |
| CNCC1CCN(c2nc(C3=C(c4c[nH]c5sccc45)C(=O)NC3=O)c3ccccc3n2)C1 (centres unmarked) [G.1.14] | 500 to 1000 nM |
| N#CC1CCN(c2nc(C3=C(c4c[nH]c5sccc45)C(=O)NC3=O)c3ccccc3n2)CC1 [E.1.9] | 100 to 500 nM |
| CN1CCC(Cn2cc(C3=C(c4c[nH]c5ccccc45)C(=O)NC3=O)c3ccsc32)CC1 [F.5.1] | < 100 nM |
| CN(C)C1CCN(c2nc(C3=C(c4c[nH]c5ccsc45)C(=O)NC3=O)c3ccccc3n2)CC1 [E.2.3] | < 100 nM |
| CN(C)[C@H]1CCN(c2nc(C3=C(c4c[nH]c5sccc45)C(=O)NC3=O)c3ccccc3n2)C[C@H]1F [E.1.33] | 100 to 500 nM |
| CC(C)N1CCN(c2nc(C3=C(c4c[nH]c5sccc45)C(=O)NC3=O)c3ccccc3n2)CC1 [E.1.21] | < 100 nM |
| O=C1NC(=O)C(c2c3n(c4ccccc24)CCC(CO)C3)=C1c1c[nH]c2sccc12 (centres unmarked) [Example #1, 3-(8-(Hydroxymethyl)-6,7,8,9-tetrahydropyrido[1,2-a]indol-10-yl)-4-(6H-thieno[2,3-b]pyrrol-4-yl)-1H-pyrrole-2,5-dione] | 100 to 500 nM |
| O=C1NC(=O)C(c2c[nH]c3sccc23)=C1c1nc(N2CCN3CCC[C@H]3C2)nc2sccc12 [E.3.1] | < 100 nM |
| CN1CC[C@@H]2CN(c3nc(C4=C(c5c[nH]c6sccc56)C(=O)NC4=O)c4ccccc4n3)CC[C@@H]21 [E.1.59] | < 100 nM |
| O=C1NC(=O)C(c2c[nH]c3ccsc23)=C1c1nc(N2CCN3CCC[C@H]3C2)nc2ccccc12 [E.2.4] | < 100 nM |
| CN(C)Cc1ncc2n1CCN(c1nc(C3=C(c4c[nH]c5sccc45)C(=O)NC3=O)c3ccccc3n1)C2 [E.1.51] | < 100 nM |
| CN(C)CCCCn1nc(C2=C(c3c[nH]c4sccc34)C(=O)NC2=O)c2ccccc21 [F.4.27] | 500 to 1000 nM |
| CN1CCN(c2nc(C3=C(c4c[nH]c5sccc45)C(=O)NC3=O)c3sccc3n2)CC1 [F.4.9] | < 100 nM |
| CN1CC(Cn2nc(C3=C(c4c[nH]c5sccc45)C(=O)NC3=O)c3ccccc32)C1 [F.4.22] | < 100 nM |

The next lines start with the values.

| IC50 | Compound |
| --- | --- |
| 100 to 500 nM | CN1CCC(C)(Cn2nc(C3=C(c4c[nH]c5sccc45)C(=O)NC3=O)c3ccccc32)CC1 [F.4.23] |
| 500 to 1000 nM | CN1CCN(c2nccc(C3=C(c4c[nH]c5sccc45)C(=O)NC3=O)n2)CC1 [F.4.8] |
| 100 to 500 nM | NCC1CCN(c2nc(C3=C(c4c[nH]c5ccsc45)C(=O)NC3=O)c3ccccc3n2)CC1 [G.1.4] |
| < 100 nM | CN1CCN(c2nc(C3=C(c4c[nH]c5sccc45)C(=O)NC3=O)c3cc(Cl)ccc3n2)CC1 [F.4.13] |
| 100 to 500 nM | CN(C)C1(C)CCN(c2nc(C3=C(c4c[nH]c5sccc45)C(=O)NC3=O)c3ccccc3n2)CC1 [E.1.41] |
| 100 to 500 nM | COc1cccc2nc(N3CCN(C)CC3)nc(C3=C(c4c[nH]c5sccc45)C(=O)NC3=O)c12 [F.4.11] |
| < 100 nM | CN1CCN(c2cc3ccc(F)cc3c(C3=C(c4c[nH]c5sccc45)C(=O)NC3=O)n2)CC1 [F.4.34] |
| < 100 nM | O=C1NC(=O)C(c2c[nH]c3sccc23)=C1c1nc(N2CCN(CCO)CC2)nc2ccccc12 [E.1.19] |
| < 100 nM | CN1CCC(Cn2cc(C3=C(c4c[nH]c5sccc45)C(=O)NC3=O)c3ccccc32)CC1 [F.4.17] |
| 100 to 500 nM | CN1CCCC(Cn2nc(C3=C(c4c[nH]c5sccc45)C(=O)NC3=O)c3ccccc32)C1 (centres unmarked) [F.4.28] |
| 100 to 500 nM | CN1CCN(c2nc3c(c(C4=C(c5c[nH]c6sccc56)C(=O)NC4=O)n2)CCC3)CC1 [F.4.10] |
| 500 to 1000 nM | CC(C1CCN(c2nc(C3=C(c4c[nH]c5sccc45)C(=O)NC3=O)c3ccccc3n2)CC1)N1CCCC1 (centres unmarked) [E.1.4] |
| 100 to 500 nM | O=C1NC(=O)C(c2c[nH]c3sccc23)=C1c1nc(N2CCC(O)(CN3CCCC3)CC2)nc2ccccc12 [E.1.25] |
| < 100 nM | CN1CCN(c2nc(C3=C(c4c[nH]c5sccc45)C(=O)NC3=O)c3ccccc3n2)CC1(C)C [E.1.24] |
| 100 to 500 nM | CN1CCC(n2nc(C3=C(c4c[nH]c5sccc45)C(=O)NC3=O)c3ccccc32)CC1 [F.4.7] |
| 100 to 500 nM | O=C1NC(=O)C(c2c[nH]c3sccc23)=C1c1nc(N2CCC(CN3CCOCC3)CC2)nc2ccccc12 [E.1.16] |
| 100 to 500 nM | O=C1NC(=O)C(c2c[nH]c3ccsc23)=C1c1nc(N2CCn3cnnc3C2)nc2ccccc12 [E.2.8] |
| 500 to 1000 nM | O=C1CN(c2nc(C3=C(c4c[nH]c5sccc45)C(=O)NC3=O)c3ccccc3n2)CCN1 [E.1.7] |
| < 100 nM | CN(C)[C@H]1CC[C@@H](n2nc(C3=C(c4c[nH]c5sccc45)C(=O)NC3=O)c3ccccc32)CC1 [F.4.5] |
| 100 to 500 nM | CNC1CCN(c2nc(C3=C(c4c[nH]c5sccc45)C(=O)NC3=O)c3ccccc3n2)C1 (centres unmarked) [G.1.7] |
| < 100 nM | O=C1NC(=O)C(c2nn(C[C@H]3CCNC[C@H]3F)c3ccccc23)=C1c1c[nH]c2sccc12 (relative stereo) [G.1.17] |
| < 100 nM | CC(C)(O)CN1CCN(c2nc(C3=C(c4c[nH]c5sccc45)C(=O)NC3=O)c3ccccc3n2)CC1 [E.1.55] |
| 500 to 1000 nM | CN1CCN(c2nc(C3=C(c4c[nH]c5sccc45)C(=O)NC3=O)c3c(O)cccc3n2)CC1 [F.4.12] |
| 100 to 500 nM | O=C1NC(=O)C(c2c[nH]c3ccsc23)=C1c1nc(NC2CCNCC2)nc2ccccc12 [G.1.8] |
